Earlier results as cited in publication PMC8359378 (British Journal of Clinical Pharmacology, 2021).

Key:
[1] = intravenous infusion; cited from earlier work
FXI and FXIa = conditions: subcutaneous administration; cited from earlier work
factor XIa activity = conditions: cited from earlier work

## CN1CCN(c2cccc3c2CCN(C(=O)/C=C/c2c(-n4cnnn4)ccc(Cl)c2F)[C@@H]3C(=O)Nc2ccc(C(=O)O)cc2)C(=O)C1 [BMS‐962212]
[1]
  patients in the active treated groups reporting AEs: 17.6%
  patients reporting infusion site pain or irritation: 5.9%

B1: MAA868: fully human antibody which binds both FXI and FXIa (antibody, chains of the INN, looked up, V domains shown)
VH: QVQLLESGGGLVQPGGSLRLSCAASGFTFSTAAMSWVRQAPGKGLEWVSGISGSGSSTYYADSVKGRFTISRDNSKNTLYLQMNSLRAEDTAVYYCARELSYLYSGYYFDYWGQGTLVTVSS
VL: QSVLTQPPSASGTPGQRVTISCSGSSSNIGSNDVSWYQQLPGTAPKLLIYKNYNRPSGVPDRFSGSKSGTSASLAISGLQSEDEADYYCSAWDQRQFDVVFGGGTKLTVL
FXI and FXIa
  effect on aPTT and FXI: robust and sustained prolongation of aPTT and FXI suppression

B2: Osocimab: fully human IgG1 monoclonal antibody targeting coagulation factor XIa (antibody, chains of the INN, looked up, V domains shown)
VH: EVQLLESGGGLVQPGGSLRLSCAASGFTFSQYGMDWVRQAPGKGLEWVSGIGPSGGSTVYADSVKGRFTISRDNSKNTLYLQMNSLRAEDTAVYYCTRGGPYYYYGMDVWGQGTTVTVSS
VL: DIQMTQSPSSLSASVGDRVTITCQASQDISNYLNWYQQKPGKAPKLLIYDASNLETGVPSRFSGSGSGTDFTFTISSLQPEDIATYYCQQADSFPVTFGGGTKVEIK
Factor XIa activity
  effect on apparent factor XIa activity and aPTT: reduced apparent factor XIa activity and prolonged aPTT in a dose‐dependent manner
